In patent US10941138B2, “Quinoline and isoquinoline derivatives for treating pain and pain related conditions” (ESTEVE PHARMACEUTICALS, S.A., priority 2016, dated 2021) one finds Ki data, which are given here for nine compounds.

Read-outs that look alike come from different tables or passages of the source.

For assay [1], the target named is human α2δ-1 subunit of Cav2.2 calcium channel (Homo sapiens (Human), UniProt P54289). The assay is described as follows: Binding assay to human α2δ-1 subunit of Cav2.2 calcium channel ([3H]-Gabapentin). As to conditions: read-out: Ki (nM) alpha2delta Hum.
Assay [2] has as its target human norepinephrine transporter (NET) (Homo sapiens (Human), UniProt P23975). As to the kind of experiment: Binding assay to human norepinephrine transporter (NET) ([3H]-Nisoxetin). As to conditions: Table 2, dual compounds, human NET enriched membranes, read-out: Ki (nM) NET Hum. As to the method:
Binding Assay to Human Norepinephrine Transporter (NET).
Human norepinephrine transporter (NET) enriched membranes (5 μg) were incubated with 5 nM of radiolabeled [3H]-Nisoxetin in assay buffer containing 50 mM Tris-HCl, 120 mM NaCl, 5 mM KCl, pH 7.4.
NSB (non specific binding) was measured by adding desipramine 10 μM. The binding of the test compound was measured at five different concentrations. After 60 min incubation at 4° C., binding reaction was terminated by filtering through Multiscreen GF/C (Millipore) presoaked in 0.5% polyethyleneimine in Vacuum Manifold Station, followed by 3 washes with ice-cold filtration buffer containing 50 mM Tris-HCl, 0.9% NaCl, pH 7.4.
Filter plates were dried at 60° C. for 1 h and 30 μl of scintillation cocktail were added to each well before radioactivity reading.
Readings were performed in a Trilux 1450 Microbeta radioactive counter (Perkin Elmer).

Setting [3] is: Table 1, human α2δ-1 enriched membranes.
Where [4] appears, read: Table 2, dual compounds, human α2δ-1 enriched membranes.

Chain of human α2δ-1 subunit of Cav2.2 calcium channel (P54289 25-1103): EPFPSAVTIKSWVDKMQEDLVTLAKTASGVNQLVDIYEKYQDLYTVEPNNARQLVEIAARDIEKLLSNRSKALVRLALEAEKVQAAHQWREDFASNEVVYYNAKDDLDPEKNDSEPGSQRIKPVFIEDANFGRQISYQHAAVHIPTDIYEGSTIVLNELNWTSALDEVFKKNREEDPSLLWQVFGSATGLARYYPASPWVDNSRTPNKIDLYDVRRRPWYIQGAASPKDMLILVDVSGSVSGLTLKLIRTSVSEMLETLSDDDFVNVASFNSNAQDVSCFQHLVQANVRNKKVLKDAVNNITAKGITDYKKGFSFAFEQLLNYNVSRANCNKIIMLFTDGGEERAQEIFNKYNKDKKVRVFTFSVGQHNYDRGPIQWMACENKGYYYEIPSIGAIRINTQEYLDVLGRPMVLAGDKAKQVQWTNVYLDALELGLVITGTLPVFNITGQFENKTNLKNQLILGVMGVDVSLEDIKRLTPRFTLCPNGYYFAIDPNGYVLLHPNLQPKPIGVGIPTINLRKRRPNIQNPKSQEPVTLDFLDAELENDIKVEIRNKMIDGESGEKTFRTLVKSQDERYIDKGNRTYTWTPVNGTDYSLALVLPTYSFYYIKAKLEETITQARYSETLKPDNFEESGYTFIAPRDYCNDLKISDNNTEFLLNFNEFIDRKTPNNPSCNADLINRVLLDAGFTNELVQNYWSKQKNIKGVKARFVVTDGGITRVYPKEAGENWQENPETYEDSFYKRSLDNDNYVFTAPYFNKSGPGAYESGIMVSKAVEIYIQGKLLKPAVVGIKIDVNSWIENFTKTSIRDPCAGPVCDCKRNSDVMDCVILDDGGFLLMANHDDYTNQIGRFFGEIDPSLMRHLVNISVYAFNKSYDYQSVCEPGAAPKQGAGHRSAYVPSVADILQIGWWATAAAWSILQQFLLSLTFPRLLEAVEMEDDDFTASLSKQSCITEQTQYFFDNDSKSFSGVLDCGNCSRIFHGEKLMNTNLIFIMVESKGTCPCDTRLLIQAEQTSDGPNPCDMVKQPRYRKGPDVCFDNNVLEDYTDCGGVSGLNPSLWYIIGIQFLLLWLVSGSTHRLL
Chain of human norepinephrine transporter (NET) (P23975 whole entry): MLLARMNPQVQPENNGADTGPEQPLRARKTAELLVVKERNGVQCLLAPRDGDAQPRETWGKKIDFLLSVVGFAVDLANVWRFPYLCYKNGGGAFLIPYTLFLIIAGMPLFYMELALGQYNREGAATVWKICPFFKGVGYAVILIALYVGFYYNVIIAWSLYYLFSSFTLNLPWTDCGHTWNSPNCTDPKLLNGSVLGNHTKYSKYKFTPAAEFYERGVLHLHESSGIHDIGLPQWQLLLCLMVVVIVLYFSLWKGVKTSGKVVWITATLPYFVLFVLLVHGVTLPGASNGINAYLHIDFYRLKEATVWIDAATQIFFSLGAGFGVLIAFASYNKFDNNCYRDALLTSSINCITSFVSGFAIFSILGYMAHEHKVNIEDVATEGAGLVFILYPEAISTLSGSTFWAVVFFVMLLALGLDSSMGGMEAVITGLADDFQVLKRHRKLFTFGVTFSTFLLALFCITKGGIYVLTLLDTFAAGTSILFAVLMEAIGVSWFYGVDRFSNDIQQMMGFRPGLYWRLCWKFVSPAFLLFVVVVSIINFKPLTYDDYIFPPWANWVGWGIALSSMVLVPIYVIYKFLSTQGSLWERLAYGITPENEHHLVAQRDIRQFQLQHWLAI

Consider `CNCC[C@@H](Oc1cccc2ncccc12)c1ccc(Cl)s1` [Example 79, (R)-3-(5-chlorothiophen-2-yl)-N-methyl-3-(quinolin-5-yloxy)propan-1-amine], for which the Ki in assay [1] (setting [3]) was less than 100 nM; in assay [1] (setting [4]), less than 100 nM; in assay [2], 500 to 1000 nM.
Turning to `CNCC[C@@H](Oc1cccc2ccncc12)c1ccc(F)s1` [Example 81, (R)-3-(5-fluorothiophen-2-yl)-3-(isoquinolin-8-yloxy)-N-methylpropan-1-amine], the Ki in assay [1] (setting [3]), in assay [1] (setting [4]) and in assay [2] was 100 to 500 nM throughout.
For the compound `CNCC[C@H](Oc1cccc2cnccc12)c1sccc1F` [Example 82, (S)-3-(3-Fluorothiophen-2-yl)-3-(isoquinolin-5-yloxy)-N-methylpropan-1-amine], the Ki in assay [1] (setting [3]) was no less than 3000 nM; in assay [1] (setting [4]), no less than 3000 nM; in assay [2], less than 100 nM.
As to `CNCC[C@@H](Oc1cccc2cnccc12)c1sccc1F` [Example 83, (R)-3-(3-fluorothiophen-2-yl)-3-(isoquinolin-5-yloxy)-N-methylpropan-1-amine], the Ki in assay [1] (setting [3]), in assay [1] (setting [4]) and in assay [2] was 100 to 500 nM each time.
Turning to `CNCC[C@H](Oc1cccc2ncccc12)c1sccc1F` [Example 84, (S)-3-(3-Fluorothiophen-2-yl)-N-methyl-3-(quinolin-5-yloxy)propan-1-amine], the results for the Ki in assay [1] (setting [3]), in assay [1] (setting [4]) and in assay [2] were 500 to 3000 nM, 500 to 3000 nM and 100 to 500 nM, respectively.
`CNCC[C@@H](Oc1cccc2ncccc12)c1sccc1F` [Example 85, (R)-3-(3-fluorothiophen-2-yl)-N-methyl-3-(quinolin-5-yloxy)propan-1-amine]: the Ki was 500 to 3000 nM in assay [1] (setting [3]), 500 to 3000 nM in assay [1] (setting [4]) and 100 to 500 nM in assay [2].
With `CNCC[C@H](Oc1cccc2ccncc12)c1sccc1F` [Example 86, (S)-3-(3-Fluorothiophen-2-yl)-3-(isoquinolin-8-yloxy)-N-methylpropan-1-amine], the figures for the Ki in assay [1] (setting [3]), in assay [1] (setting [4]) and in assay [2] were no less than 3000 nM, no less than 3000 nM and 100 to 500 nM, respectively.
Turning to `CNCC[C@@H](Oc1cccc2ccncc12)c1sccc1F` [Example 87, (R)-3-(3-fluorothiophen-2-yl)-3-(isoquinolin-8-yloxy)-N-methylpropan-1-amine], the Ki in assay [1] (setting [3]), in assay [1] (setting [4]) and in assay [2] was 100 to 500 nM each time.
In the case of `CNCC[C@@H](Oc1cnc2ccccc2c1)c1cccs1` [Example 94, (R)-N-methyl-3-(quinolin-3-yloxy)-3-(thiophen-2-yl)propan-1-amine], the figures for the Ki in assay [1] (setting [3]), in assay [1] (setting [4]) and in assay [2] were no less than 3000 nM, no less than 3000 nM and 100 to 500 nM, respectively.
